The values below come from article PMC9212912 (Structure (London, England : 1993), 2022).

In this test the test system is SARS-CoV-2 (Delta variant, pangolin linage B.1.617.2). In words: microbe, parasite or virus in culture. Format: cell-based.

For `Cc1sc2c(c1C)C(c1ccc(Cl)cc1)=N[C@@H](CC(=O)OC(C)(C)C)c1nnc(C)n1-2` [JQ1], under “0.01 µM”, the “Inhibition of SARS-CoV-2 infection in Calu-3 cells” value came to 72%.
Take `Cc1sc2c(c1C)C(c1ccc(Cl)cc1)=N[C@@H](CC(=O)Nc1ccc(O)cc1)c1nnc(C)n1-2` [OTX015]: the inhibition at 0.01 µM (Severe acute respiratory syndrome coronavirus 2, Calu-3, 24 h, read-out: Inhibition of SARS-CoV-2 infection in Calu-3 cells) came out at 69%.
